The assay relates to NO production by LPS-stimulated cultured murine macrophages. In words: Inhibition of NO production (Griess nitrite assay) in LPS-stimulated cultured murine macrophages. The assay is classed as cell-based, murine (ICR mice peritoneal macrophages; RAW264.7). Particulars: for inhibition at 0.269 µg/mL: beta-carotene alone at 0.269 μg/ml. On the procedure: The aim of this study was to investigate the effect of different combinations of NS oil and carotenoids on the in vitro production of the inflammatory mediator NO by LPS-stimulated cultured murine macrophages.
Macrophage isolation and cell culture—Peritoneal macrophages were collected from the peritoneal cavity of 6-8 week old male ICR mice (Harlan, Israel) that had been given an intraperitoneal injection of 1.5 ml of thioglycollate broth (4%) 4 days before harvest. […] Peritoneal macrophages and murine macrophage cell line RAW264.7 were cultured RPMI 1640 medium containing 10% FCS, 2 mM L-glutamine; 100 U/ml penicillin; 100 μg/ml streptomycin (Beit-Haemek, Israel) in 96-well plates (1×10^6 cells/well) at 37° C. in 5% CO2 atmosphere. Cells were stimulated with LPS (0.1-1 μg/ml) in the presence or absence of NS oil acid and/or one or more of the following carotenoids: astaxanthin, lutein and beta-Carotene. The following stock solutions of each active agent were used to prepare the various dilutions tested: • Cold-pressed NS oil containing 3% thymoquinone and 1.7% free fatty acids (N.S. Oils, Israel). • Lutein 20% (Lycored Ltd., Israel) • Beta-carotene 30% in vegetable oil (Lycored Ltd., Israel) • Astaxanthin oleoresin extracted from microalgae, containing 10% astaxanthin (Algatech, Israel). • Lycopene (present at a concentration of 6.35% in the commercially-available product known as Lyc-O-Mato, obtained from Lycored Ltd., Israel).
The carotenoids were dissolved in DMSO (to a final concentration of 5 mM). The mixture was vortexed and incubated in a water bath at 37° C. (with shaking) for 10 min and then sonicated in a sonicator bath three times for 15 seconds each time. Using this stock solution, the desired concentrations were prepared by the addition of appropriate volumes thereof to warm culture medium.
Appropriate volumes of DMSO (0.1-0.2%) were added to the control tubes and the percent inhibition of NO production in each test tube was calculated in relation to its control.
NO production assay—NO levels in supernatants of cell cultures were determined by assaying nitrite levels using Griess reagent and sodium nitrite as a standard as described in Green, L. C., Wagner, D. A., Glogowski, J., Skipper, P. L., Wishnok, J. S., and Tannenbaum, S. R. (1982) Anal Biochem. 126: 131-138. […]

This note sets out measurements from patent publication US12589082B2, “Compositions comprising thymoquinone and additional biologically active compounds” (N.S. OILS LTD., priority 2019, dated 2026).

SMILES strings stand for the structures.

The term inhibition denotes how much of the control response was suppressed.

For `C=C(C)[C@@H]1CCC(C)=C[C@H]1c1c(O)cc(CCCCC)cc1O` [CBD, cannabidiol], the “inhibition of NO production” value is recorded as “did not results in a detectable level of NO inhibition” (Example 2 first study, FIG. 8, CBD alone at 0.0075 μg/ml) and “measurable inhibition of NO production” (Example 2 second study, FIG. 9 upper, CBD alone at 0.005 μg/ml). Moreover, the inhibition at 0.01 µg/mL (Mus musculus, Macrophage, read-out: inhibition of NO production) is less than 10%.
For the molecule `CC1=C(/C=C/C(C)=C/C=C/C(C)=C/C=C/C=C(C)/C=C/C=C(C)/C=C/C2=C(C)C(=O)[C@@H](O)CC2(C)C)C(C)(C)C[C@H](O)C1=O` [astaxanthin], where the note is “Example 1 first study, FIG. 1, astaxanthin alone at 0.298 and 0.596 μg/ml, % of maximal inhibition”, the “inhibition of NO production” value is recorded as 20-25%. In addition, the inhibition at 0.298 µg/mL by setting is: (Mus musculus, Macrophage, Example 4, text summary, astaxanthin only, 0.298 μg/ml) roughly 20%; (Mus musculus, Macrophage, Example 4 comparative, column 0.0015 μg/ml TQ of high-FFA NS oil dilution, astaxanthin 0.298 μg/ml, agent alone or combined as labelled) 19.1%; (Mus musculus, Macrophage, Example 4 comparative, column 0.0030 μg/ml TQ of high-FFA NS oil dilution, astaxanthin 0.298 μg/ml, agent alone or combined as labelled) 21.3%; (Mus musculus, Macrophage, second study, FIG. 4, astaxanthin alone at 0.298 μg/ml) 19.1%.
Turning to `CC1=C(/C=C/C(C)=C/C=C/C(C)=C/C=C/C=C(C)/C=C/C=C(C)/C=C/C2=C(C)CCCC2(C)C)C(C)(C)CCC1` [beta-carotene], the inhibition at 0.269 µg/mL is less than 10% (Mus musculus, Macrophage, first study, FIG. 3) and 3.89% (Mus musculus, Macrophage, second study, FIG. 6). Besides, the inhibition at 0.538 µg/mL (Mus musculus, Macrophage, first study, FIG. 3, beta-carotene alone at 0.538 μg/ml) is less than 20%.
With `CC1=C[C@H](O)CC(C)(C)[C@H]1/C=C/C(C)=C/C=C/C(C)=C/C=C/C=C(C)/C=C/C=C(C)/C=C/C1=C(C)C[C@@H](O)CC1(C)C` [lutein], the inhibition at 0.284 µg/mL (Mus musculus, Macrophage, second study, FIG. 5, lutein alone at 0.284 μg/ml) is 6.96%. Besides, the “inhibition of NO production” value (first study, FIG. 2, lutein alone at 0.284 μg/ml) was “did not cause any measurable degree of NO inhibition”.
In the case of `CC(C)=CCC/C(C)=C/C=C/C(C)=C/C=C/C(C)=C/C=C/C=C(C)/C=C/C=C(C)/C=C/C=C(\C)CCC=C(C)C` [lycopene], the inhibition at 0.35 µg/mL (Mus musculus, Macrophage, second study, FIG. 7, lycopene alone at 0.35 μg/ml) worked out at 13.5%.
